{"source": "patent US10799536B2", "about": "“Method of treating multiple myeloma using natural killer cells expressing a chimeric antigen receptor for CD38” (Onkimmune Limited, priority 2016, dated 2020)", "molecules": {"B1": {"name": "TRAIL variant: TRAIL variant of WO 2009/077857, wildtype TRAIL gene containing the D269H/E195R mutation (protein)", "chain": "MAMMEVQGGPSLGQTCVLIVIFTVLLQSLCVAVTYVYFTNELKQMQDKYSKSGIACFLKEDDSYWDPNDEESMNSPCWQVKWQLRQLVRKMILRTSEETISTVQEKQQNISPLVRERGPQRVAAHITGTRGRSNTLSSPNSKNEKALGRKINSWESSRSGHSFLSNLHLRNGELVIHEKGFYYIYSQTYFRFQERIKENTKNDKQMVQYIYKYTSYPDPILLMKSARNSCWSKDAEYGLYSIYQGGIFELKENDRIFVSVTNEHLIDMHHEASFFGAFLVG"}}, "key": {"DR5 [1]": {"tested_on": "DR5", "conditions": "for DR5 expression, MFI: 24 hours, FIG. 20", "from_the_text": "Bortezomib was bought from Millennium Pharmaceuticals."}, "DR4": {"molecular_target": "DR4 (Homo sapiens, UniProt O00220)", "conditions": "surface plasmon resonance; WO 2009/077857; cited from earlier work"}, "decoy receptor DcR1": {"molecular_target": "T1, decoy receptor DcR1 (Homo sapiens, UniProt O14798)", "T1 sequence (O14798 26-236)": "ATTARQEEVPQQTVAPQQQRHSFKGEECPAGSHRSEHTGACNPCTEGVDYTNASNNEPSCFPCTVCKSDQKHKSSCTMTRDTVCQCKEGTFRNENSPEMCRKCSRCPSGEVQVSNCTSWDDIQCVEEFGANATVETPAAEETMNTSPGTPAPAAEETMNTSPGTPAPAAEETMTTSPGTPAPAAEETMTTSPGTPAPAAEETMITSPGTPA", "conditions": "surface plasmon resonance; WO 2009/077857; cited from earlier work"}, "CTLA4 gene": {"tested_on": "CTLA4 gene", "test": "gRNA cleavage in K562 cells, T7E1 mismatch detection assay", "format": "cell-based, human", "conditions": "FIG. 7", "experimental": "(§1) Cells having inhibitory receptor function removed were prepared as follows. gRNA constructs were designed and prepared to target genes encoding the ‘classical’ inhibitory receptor LIR2 and the ‘checkpoint’ inhibitory receptor CTLA4 in the human genome of NK cells. CRISPR/Cas9 genome editing was then used to knock out the LIR2 and CTLA4 target genes.\n(§2) Two gRNA candidates were selected for each target gene and their cleavage efficacies in K562 cells determined.\n(§3) K562 cells were transfected with the prepared gRNA constructs (FIG. 5) and subsequently harvested for PCR amplification. The presence of GFP expression was used to report successful incorporation of the gRNA construct into the K562 cells. This confirmed expression of the Cas9 gene and therefore the ability to knock out expression of the LIR2 and CTLA4 genes. The cleavage activity of the gRNA constructs was determined using an in vitro mismatch detection assay. T7E1 endonuclease I recognizes and cleaves non-perfectly matched DNA, allowing the parental LIR2 and CTLA4 genes to be compared to the mutated genes following CRISPR/Cas9 transfection and non-homologous end joining (NHEJ)."}, "LIR2 gene": {"tested_on": "LIR2 gene", "test": "gRNA cleavage in K562 cells, T7E1 mismatch detection assay", "format": "cell-based, human", "conditions": "FIG. 6", "experimental": "as §1, §2, §3\nThe three bands corresponding to each mutation relate to the parental gene (601) and the two resulting strands following detection of a mismatch in the DNA sequence after transfection (602 and 603)."}, "DR5 [2]": {"molecular_target": "DR5 (Homo sapiens, UniProt O14763)", "conditions": "D269H/E195R mutation, relative to wildtype TRAIL; cited from earlier work"}, "[3]": {"tested_on": "decoy receptors (DcR1 and DcR2)", "conditions": "D269H/E195R mutation, relative to wildtype TRAIL; cited from earlier work"}}, "note": "Where two headings read alike, the source gives them in different places.", "data": [{"molecule": "CC(C)C[C@H](NC(=O)[C@H](Cc1ccccc1)NC(=O)c1cnccn1)B(O)O", "note": "[Bortezomib]", "values": [{"measurement": "DR5 expression, MFI", "setting": "DR5 [1]; MM1.S cells, 2.5 nm of Bortezomib, untreated MFI 214", "value": 662}, {"measurement": "DR5 expression, MFI", "setting": "DR5 [1]; RPMI 8226 cells, 10 nm Bortezomib, untreated MFI 273", "value": 679}, {"measurement": "DR5 expression at high doses", "setting": "DR5 [1]; high doses of Bortezomib", "value": "could not be upregulated"}]}, {"molecule": "Wildtype TRAIL: TNF-related apoptosis-inducing ligand, wild-type protein", "values": [{"measurement": "Kd", "setting": "DR4", "value": "> 2", "unit": "nM"}, {"measurement": "Kd", "setting": "decoy receptor DcR1", "value": "> 20", "unit": "nM"}]}, {"molecule": "g7 gRNA: gRNA targeting hCTLA4, CACTCACCTTTGCAGAAGACAGG (SEQ ID NO: 26) (listed as DNA, chemistry not fully specified; listed as Homo sapiens)", "values": [{"measurement": "success rate of transfection (CTLA4 knockout)", "setting": "CTLA4 gene", "value": 32, "unit": "%"}]}, {"molecule": "g9 gRNA: gRNA targeting hLIR2, GAGTCACAGGTGGCATTTGGCGG (SEQ ID NO: 24) (listed as DNA, chemistry not fully specified; listed as Homo sapiens)", "values": [{"measurement": "success rate of transfection (LIR2 knockout)", "setting": "LIR2 gene", "value": 11, "unit": "%"}]}, {"molecule": "g15 gRNA: gRNA targeting hCTLA4, CCTTGTGCCGCTGAAATCCAAGG (SEQ ID NO: 27) (listed as DNA, chemistry not fully specified; listed as Homo sapiens)", "values": [{"measurement": "success rate of transfection (CTLA4 knockout)", "setting": "CTLA4 gene", "value": 26, "unit": "%"}]}, {"molecule": "g18 gRNA: gRNA targeting hLIR2, CGAATCGCAGGTGGTCGCACAGG (SEQ ID NO: 25) (listed as DNA, chemistry not fully specified; listed as Homo sapiens)", "values": [{"measurement": "success rate of transfection (LIR2 knockout)", "setting": "LIR2 gene", "value": 10, "unit": "%"}]}, {"molecule": "B1", "values": [{"measurement": "affinity of the TRAIL variant for DR5", "setting": "DR5 [2]", "value": "significantly increases"}, {"measurement": "affinity for both decoy receptors (DcR1 and DcR2)", "setting": "[3]", "value": "reducing"}]}]}
